Test [1] deals with Karenia brevis (Piney Island A2). The experiment in a line: K. brevis culture treatment, intact cell counts (light microscope / FlowCam). The format is cell-based. Particulars: for cell appearance in FlowCam images: 100 μM final concentration, treated flasks. Here is the method: The present inventors have determined that NO may be used to trigger cell death in Karenia brevis and potentially other harmful algae. The response to low concentrations occurs within 24 hours and varies with concentration. To describe the dose response, cultures of K. brevis (Piney Island A2) were exposed to varied concentrations of the nitric oxide donor diethylamine NONOate sodium salt hydrate or DEA NONOate (IUPAC name: sodium N-(diethylamino)-N-oxidonitrous amide).
Work described by Chung et al. (2008) employed 500 μM DEA NO to elicit ScDSP-1 expression in Skeletonema costatum. The present inventors sought to determine the low end of the dose response, if any effect, in K. brevis. Trials therefore tested the effect of DEA NONOate concentrations ranging from 100 μM to 0.1 μM. For each trial, K. brevis cultures were grown in L1 media. Cultures were diluted 1:1 from a stock flask into a total volume of 125 mL in 250-mL acid washed and autoclaved flasks. Cultures were allowed to recover for 2-4 days prior to treatment. Immediately prior to treatment, DEA NONOate (Sigma-Aldrich, St. Louis, Mo.) was dissolved from its powdered form in sterile nuclease-free water. The solution was made to a concentration of 1 mg mL^−1. Two trials were performed to delineate responses to different concentrations of NO. In each case, the appropriate volume of DEA NONO solution was added and the cultured swirled by hand gently to mix the solution. Control flasks were also used for each trial; these received only an aliquot of the water used for dissolving DEA NONOate, equal to the largest volume administered to treatment flasks for that trial. At the concentration of 1 mg mL^−1, volumes of DEA NONO solution added ranged from 1.9 mL to 1.9 μL for 100 μM to 0.1 μM final concentrations in culture flasks. Three replicate flasks were used for each concentration and negative controls. Prior to treatment and at each sampling point after treatment, 5 mL of culture were removed for counting. A 1 mL aliquot was imaged/counted on the FlowCam flow-through microscope and the remainder was stained with Lugol's iodine solution and counted by light microscope on a gridded Sedgewick counting slide (1 mm^2 grid size). For slide counting, 50-70 grid squares were counted for each sample. Although counts were obtained for most samples by FlowCam and light microscopy, the light microscope counts were used for recording quantitative data while FlowCam images were used as a record of cell appearances.

Test [2] shares this test system. The description is as above. Particulars: 20 μM final concentration, higher-density cultures, T=2 days, two replicates. Type of test: cell-based.
The test system of test [3] is ScDSP-1. Conditions: Skeletonema costatum; cited from earlier work.
The subject of test [4] is caspase-like activity. The experiment in a line: Caspase-like activity in K. brevis, summary statements. Type of test: cell-based, Karenia brevis. As to the method: (§1) Since caspase activity is a hallmark of PCD, experiments were conducted to examine caspase-like enzyme activity in K. brevis. The activity of enzymes that are similar to caspase-3 and caspase-8 were examined. The assays use a commercially available kit (MBL International, Woburn, Mass.) to measure the protease activity specific to certain amino acid sequence motifs. A short time series was performed to measure upregulation of caspase-like activity due to exposure to NO. NO was produced from the compound DEA-NONOate (use of this is previously described herein). […] Based on these findings, there is at least a 2-3 fold up-regulation of caspase-like activity due to NO exposure at 50-100 micromolar. This provides evidence that K. brevis death due to NO exposure is mediated by PCD pathways in the cells. This activity appears rapidly (within 20 minutes), and can decline rapidly (by 120 minutes). The decline is presumably due to actual death of the cells, since at the 120 minute mark, many cells were already in the process of lysis when viewed microscopically.

Test [5] concerns caspase 8. The experiment in a line: Colorimetric caspase-like enzyme activity in K. brevis, caspase 8. The format is cell-based, Karenia brevis. Here is the method: as §1
The test system of test [6] is caspase 3. The experiment in a line: Colorimetric caspase-like enzyme activity in K. brevis, caspase 3. The format is cell-based, Karenia brevis. As to the method:
as §1

In test [7] the test system is caspase-like activity. Conditions: pretreatment before supplementation of NO donors; cited from earlier work.
[8] abbreviates: Experiment 1, 100 uM NO, 60 min.
Where [9] appears, read: Experiment 1, 100 uM NO, 120 min.

For `CCN(CC)N([O-])N=O.[Na+]` [DEA NONOate, sodium N-(diethylamino)-N-oxidonitrous amide, reference compound], the results for the “cell appearance in FlowCam images” value in test [1] and in test [1] (listed as DEA NONO) were “all particles imaged by the FlowCam resembled the disrupted cells” and “disrupted”, respectively. For the same molecule, the intact cells present result in test [1] (100 μM, 1 day post-treatment) is on record as “no intact cells were observed”; in test [1] (100 μM, 2 days post-treatment) it was “no intact cells were observed”. Moreover, the “decrease of average intact cell count from pre-treatment counts” value in test [2] stood at 98.6%.
Take `CC(C)C[C@H](NC(=O)[C@H]1O[C@@H]1C(=O)O)C(=O)NCCCCN=C(N)N` [E-64, L-transepoxysuccinyl-leucylamido-[4-guanidino]butane, reference compound]: the “protection against NO-induced mortality” value in test [1] (E-64 10 μM added with 20 μM NO) is given as “no protection”.
For `[N]=O` [NO, nitric oxide], in test [1] (10 μM, T=5 days), the “cell counts of surviving cells (recovery)” value is “increased to greater than pre-treatment numbers”. For the same molecule, the intact cells present entry was “no intact cells were present” in test [1] (100 μM, 1 day post-treatment) and “no intact cells were present” in test [1] (100 μM, 2 days post-treatment). Besides, in test [1] (100 μM, 24 hours), the cell death result was “complete cell death”. Besides, in test [1] (Karenia brevis, 10 μM, second trial (FIG. 3), read-out: mortality / reduction of intact cells from pre-treatment numbers), the mortality at 10 µM was around 50%. In test [1] (Karenia brevis, 20 μM NO (FIG. 4)), this molecule registered a mortality at 20 µM of around 50%. Also, in test [1] (low concentrations), the “time in which response to low concentrations occurs” value was at most 24 h. Moreover, the “effect on intact cell numbers” value in test [1] (lower concentrations, 1 μM or less (0.1 μM, 1 μM)) is listed as “no effect”. Further, in test [3], the “expression of a death specific protein” value was “induce expression of a death specific protein”. Besides, in test [4] (NO exposure), the “time by which caspase-like activity can decline” value is at most 120 min. Moreover, the “time in which caspase-like activity appears” value in test [4] (NO exposure) was at most 20 min. Moreover, the “up-regulation of caspase-like activity” value in test [4] (NO exposure at 50-100 micromolar) is 2-3 fold. For the same molecule, the “Absorbance of colorimetric caspase cleavage product, caspase 8” value in test [5] (setting [8]) worked out at 0.017; in test [5] (setting [9]), 0.006; in test [5] (Experiment 2, 50 uM NO, 20 min), 0.021; in test [5] (Experiment 2, 50 uM NO, 40 min), 0.019; in test [5] (Experiment 2, 50 uM NO, 60 min), 0.018. Besides, the “Upregulation vs. control (fold), caspase 8” value in test [5] (setting [8]) is 2.4 fold; in test [5] (setting [9]), 0.9 fold; in test [5] (Experiment 2, 50 uM NO, 20 min), 2.1 fold; in test [5] (Experiment 2, 50 uM NO, 40 min), 1.9 fold; in test [5] (Experiment 2, 50 uM NO, 60 min), 1.8 fold. In addition, the “Absorbance of colorimetric caspase cleavage product, caspase 3” value is given as 0.014 in test [6] (setting [8]); 0.001 in test [6] (setting [9]); 0.016 in test [6] (Experiment 2, 50 uM NO, 20 min); 0.016 in test [6] (Experiment 2, 50 uM NO, 40 min); 0.013 in test [6] (Experiment 2, 50 uM NO, 60 min). The “Upregulation vs. control (fold), caspase 3” value was 14 fold in test [6] (setting [8]); 1 fold in test [6] (setting [9]); 2.7 fold in test [6] (Experiment 2, 50 uM NO, 20 min); 2.7 fold in test [6] (Experiment 2, 50 uM NO, 40 min); 2.2 fold in test [6] (Experiment 2, 50 uM NO, 60 min).
For the molecule Ac-DEVD-CHO, the “effect on increase in caspase-like activity” value in test [7] was “prevented increase in caspase-like activity”.

Values taken from patent publication US8476196B2, “Control of harmful algal blooms by induction of programmed cell death” (University of South Florida, priority 2009, dated 2013).
